Series [1] concerns Staphylococcus aureus. The series is described as follows: Antibacterial activity against methicillin-resistant Staphylococcus aureus 2658 RCMB after 20 hrs by broth microdilution assay. Format: functional. Background: Broth dilution looks for growth in wells or tubes with falling amounts of substance.
Series [2] relates to Staphylococcus aureus. Kind of series: Bactericidal activity against Staphylococcus aureus USA300 NRS384 incubated for 20 hrs followed by re-plating on tryptic soy agar plates at 37 degC for 18 hrs by broth microdilution assay. The series is classed as functional.
The subject of series [3] is Staphylococcus aureus. The series is described as follows: Bactericidal activity against vancomycin-resistant Staphylococcus aureus VRSA12 incubated for 20 hrs followed by re-plating on tryptic soy agar plates at 37 degC for 18 hrs by broth microdilution assay. Format: functional.
The test system of series [4] is Staphylococcus aureus. The series is described as follows: Antibacterial activity against Staphylococcus aureus after 20 hrs by broth microdilution assay. The series is classed as functional.
In series [5] the test system is Staphylococcus aureus. The series is described as follows: Antibacterial activity against methicillin-resistant Staphylococcus aureus after 20 hrs by broth microdilution assay. Format: functional.
Series [6] relates to Enterococcus faecalis. Kind of series: Antibacterial activity against vancomycin-resistant Enterococcus faecalis ATCC 51299 after 20 hrs by broth microdilution assay. Format: functional. Particulars: ATCC 51299, 20 h.
Series [7] deals with Staphylococcus aureus. The series is described as follows: Antibacterial activity against vancomycin-resistant Staphylococcus aureus VRSA10 after 20 hrs by broth microdilution assay. Format: functional. Particulars: VRSA10, 20 h.
Series [8] deals with Staphylococcus aureus. The series is described as follows: Bactericidal activity against methicillin-resistant Staphylococcus aureus NRS386 incubated for 20 hrs followed by re-plating on tryptic soy agar plates at 37 degC for 18 hrs by broth microdilution assay. Format: functional.
Series [9] deals with Staphylococcus epidermidis. Kind of series: Antibacterial activity against methicillin-resistant Staphylococcus epidermidis NRS101 after 20 hrs by broth microdilution assay. The series is classed as functional. Particulars: NRS101, 20 h.
Series [10] relates to Staphylococcus aureus. Kind of series: Bactericidal activity against Staphylococcus aureus USA400 NRS123 incubated for 20 hrs followed by re-plating on tryptic soy agar plates at 37 degC for 18 hrs by broth microdilution assay. The series is classed as functional.
Series [11] relates to Enterococcus faecium. The series is described as follows: Bactericidal activity against vancomycin-resistant Enterococcus faecium ATCC 700221 incubated for 20 hrs followed by re-plating on tryptic soy agar plates at 37 degC for 18 hrs by broth microdilution assay. Format: functional.
For series [12], the system named is Streptococcus pneumoniae. The series is described as follows: Antibacterial activity against methicillin-resistant Streptococcus pneumoniae ATCC 700677 after 20 hrs by broth microdilution assay. Format: functional. Particulars: ATCC 700677, 20 h.
The subject of series [13] is Enterococcus faecium. The series is described as follows: Antibacterial activity against vancomycin-resistant Enterococcus faecium ATCC 700221 after 20 hrs by broth microdilution assay. As to conditions: ATCC 700221, 20 h. The series is classed as functional.
For series [14], the system named is Staphylococcus aureus. The series is described as follows: Antibacterial activity against methicillin-resistant Staphylococcus aureus NRS386 after 20 hrs by broth microdilution assay. The series is classed as functional. Particulars: NRS386, 20 h.
In series [15] the test system is Staphylococcus aureus. Kind of series: Bactericidal activity against linezolid-resistant Staphylococcus aureus NRS119 incubated for 20 hrs followed by re-plating on tryptic soy agar plates at 37 degC for 18 hrs by broth microdilution assay. The series is classed as functional.
Series [16] concerns Staphylococcus epidermidis. Kind of series: Bactericidal activity against methicillin-resistant Staphylococcus epidermidis NRS101 incubated for 20 hrs followed by re-plating on tryptic soy agar plates at 37 degC for 18 hrs by broth microdilution assay. Format: functional.
For series [17], the system named is Staphylococcus aureus. The series is described as follows: Bactericidal activity against methicillin-sensitive Staphylococcus aureus NRS107 incubated for 20 hrs followed by re-plating on tryptic soy agar plates at 37 degC for 18 hrs by broth microdilution assay. Format: functional.
Series [18] concerns Streptococcus pneumoniae. The series is described as follows: Bactericidal activity against cephalosporin-resistant Streptococcus pneumoniae ATCC 51916 incubated for 20 hrs followed by re-plating on tryptic soy agar plates at 37 degC for 18 hrs by broth microdilution assay. Format: functional.
Series [19] relates to Streptococcus pneumoniae. The series is described as follows: Antibacterial activity against cephalosporin-resistant Streptococcus pneumoniae ATCC 51916 after 20 hrs by broth microdilution assay. Particulars: ATCC 51916, 20 h. The series is classed as functional.
The subject of series [20] is Streptococcus pneumoniae. The series is described as follows: Bactericidal activity against methicillin-resistant Streptococcus pneumoniae ATCC 700677 incubated for 20 hrs followed by re-plating on tryptic soy agar plates at 37 degC for 18 hrs by broth microdilution assay. Format: functional.
For series [21], the system named is Staphylococcus aureus. The series is described as follows: Bactericidal activity against vancomycin-resistant Staphylococcus aureus VRSA10 incubated for 20 hrs followed by re-plating on tryptic soy agar plates at 37 degC for 18 hrs by broth microdilution assay. Format: functional.
Series [22] deals with Listeria monocytogenes. Kind of series: Antibacterial activity against Listeria monocytogenes ATCC 19111 after 20 hrs by broth microdilution assay. Particulars: ATCC 19111, 20 h. The series is classed as functional.
The test system of series [23] is Staphylococcus aureus. The series is described as follows: Antibacterial activity against vancomycin-resistant Staphylococcus aureus VRSA12 after 20 hrs by broth microdilution assay. Format: functional. Particulars: VRSA12, 20 h.
In series [24] the test system is Enterococcus faecalis. Kind of series: Bactericidal activity against vancomycin-resistant Enterococcus faecalis ATCC 51299 incubated for 20 hrs followed by re-plating on tryptic soy agar plates at 37 degC for 18 hrs by broth microdilution assay. The series is classed as functional.
The test system of series [25] is Staphylococcus aureus. Kind of series: Bactericidal activity against methicillin-resistant Staphylococcus aureus NRS385 incubated for 20 hrs followed by re-plating on tryptic soy agar plates at 37 degC for 18 hrs by broth microdilution assay. The series is classed as functional.
Series [26] concerns Listeria monocytogenes. The series is described as follows: Bactericidal activity against Listeria monocytogenes ATCC 19111 incubated for 20 hrs followed by re-plating on tryptic soy agar plates at 37 degC for 18 hrs by broth microdilution assay. The series is classed as functional.
The subject of series [27] is Staphylococcus aureus. Kind of series: Antibacterial activity against methicillin-resistant Staphylococcus aureus NRS385 after 20 hrs by broth microdilution assay. Format: functional. As to conditions: NRS385, 20 h.
Series [28] relates to Caco-2. Kind of series: Cytotoxicity against human Caco2 cells assessed as effect on cell viability up to 64 ug/ml after 2 hrs by MTS assay. The series is classed as cell-based. Particulars: caco-2, 2 h. For orientation: Tetrazolium dyes change colour on reduction, which living cells bring about.
The subject of series [29] is Staphylococcus aureus. Kind of series: Antibacterial activity against methicillin-resistant Staphylococcus aureus USA400 NRS123 after 1 passages over 2 weeks by broth microdilution method. The series is classed as functional, organism-based.

In brackets after ≈: the same amount, converted by molar mass. Activity calls are given as the source filed them. The calls are words filed in the database; no cut-off is given here.

`CCCCCCCOc1ccc(-c2nc(C)c(-c3ccnc(N4CC(O)C4)n3)s2)cc1`: the MIC in series [1] is 6.25 µg/mL (≈ 14.2 µM).

Turning to `CCCCCCCOc1ccc(-c2nc(C)c(-c3ccnc(NC)n3)s2)cc1`, in series [1], the MIC is > 50 µg/mL.

With `CCCCCCCOc1ccc(-c2nc(C)c(-c3ccnc(NN)n3)s2)cc1`, the MBC in series [2] was > 64 µg/mL; in [3], > 64 µg/mL; in [8] it was > 64 µg/mL; in [10], > 64 µg/mL; in series [11] it was > 64 µg/mL; in series [15] it was 64 µg/mL (≈ 161 µM). Moreover, the MBC in series [16] was 64 µg/mL (≈ 161 µM); in series [17], > 64 µg/mL; in [18] it was > 64 µg/mL; in series [20], > 64 µg/mL; in series [21], > 64 µg/mL; in series [24] it was > 64 µg/mL. Moreover, the MBC in series [25] was 64 µg/mL (≈ 161 µM); in [26] it was > 64 µg/mL. Also, the MIC was 16 µg/mL (≈ 40.2 µM) in series [4]; 32 µg/mL (≈ 80.5 µM) in series [5]; > 64 µg/mL in series [6]; 64 µg/mL (≈ 161 µM) in series [7]; 64 µg/mL (≈ 161 µM) in series [9]; > 64 µg/mL in [12]. The MIC in series [13] was 64 µg/mL (≈ 161 µM); in [14], 32 µg/mL (≈ 80.5 µM); in [19], > 64 µg/mL; in [22] it was 16 µg/mL (≈ 40.2 µM); in series [23], 64 µg/mL (≈ 161 µM); in series [1] it was 3.12 µg/mL (≈ 7.85 µM). In addition, the minimal inhibitory concentration (MIC) in series [27] was found to be 32 µg/mL (≈ 80.5 µM).

As for `CCCCCCCCOc1ccc(-c2nc(C)c(-c3ccnc(NC(=N)N(C)C)n3)s2)cc1`, the MBC came out at 16 µg/mL (≈ 34.3 µM) in [2]; 16 µg/mL (≈ 34.3 µM) in [3]; 16 µg/mL (≈ 34.3 µM) in series [8]; 16 µg/mL (≈ 34.3 µM) in series [10]; 8 µg/mL (≈ 17.1 µM) in series [11]; 16 µg/mL (≈ 34.3 µM) in [15]. For the same compound, the MBC came out at 8 µg/mL (≈ 17.1 µM) in [16]; 8 µg/mL (≈ 17.1 µM) in series [17]; 16 µg/mL (≈ 34.3 µM) in [18]; 32 µg/mL (≈ 68.6 µM) in [20]; 16 µg/mL (≈ 34.3 µM) in series [21]; 32 µg/mL (≈ 68.6 µM) in series [24]. Also, the minimal bactericidal concentration (MBC) in [25] turned out to be 16 µg/mL (≈ 34.3 µM); in [26], 8 µg/mL (≈ 17.1 µM). For the same compound, the MIC was 8 µg/mL (≈ 17.1 µM) in [4]; 8 to 16 µg/mL (≈ 17.1 to 34.3 µM) in [5]; 32 µg/mL (≈ 68.6 µM) in series [6]; 16 µg/mL (≈ 34.3 µM) in series [7]; 4 µg/mL (≈ 8.57 µM) in series [9]; 16 µg/mL (≈ 34.3 µM) in [12]. Besides, the MIC in series [13] was 8 µg/mL (≈ 17.1 µM); in series [14], 16 µg/mL (≈ 34.3 µM); in series [19], 16 µg/mL (≈ 34.3 µM); in [22], 4 µg/mL (≈ 8.57 µM); in [23] it was 16 µg/mL (≈ 34.3 µM); in series [1], 1.56 µg/mL (≈ 3.34 µM). 16 µg/mL (≈ 34.3 µM) was the least that counted as inhibitory in [27] (MIC). In addition, in [28], the Activity entry is on record as “Non-Toxic”.

With `CCCCCCCCOc1ccc(-c2nc(C)c(-c3ccnc(NC(=N)NC)n3)s2)cc1`, the MIC in series [1] is > 50 µg/mL.

`CCCCCCCCOc1ccc(-c2nc(C)c(-c3ccnc(N4CC(O)C4)n3)s2)cc1` had an MIC in series [1] of 6.25 µg/mL (≈ 13.8 µM).

For `CO[C@H]1/C=C/O[C@@]2(C)Oc3c(C)c(O)c4c(O)c(c(/C=N/N5CCN(C)CC5)c(O)c4c3C2=O)NC(=O)/C(C)=C\C=C\[C@H](C)[C@H](O)[C@@H](C)[C@@H](O)[C@@H](C)[C@H](OC(C)=O)[C@@H]1C`, the outcome in series [29] was inactive.

The compound `CCCCCCCCOc1ccc(-c2nc(C)c(-c3ccnc(NC(=N)N)n3)s2)cc1` gave a minimal inhibitory concentration (MIC) in [1] of 1.56 µg/mL (≈ 3.56 µM).

On to `CCCCCCCCOc1ccc(-c2nc(C)c(-c3ccnc(NN)n3)s2)cc1`, for which it took 3.12 µg/mL (≈ 7.58 µM) to inhibit growth in [1] (MIC).

For the compound `CCCCCCCOc1ccc(-c2nc(C)c(-c3ccnc(NN4CCOCC4)n3)s2)cc1`, the lowest concentration to inhibit growth in [1] (MIC) was 25 µg/mL (≈ 53.5 µM). Against the preceding compound, the MIC is about 8-fold higher.

What is called MIC is the lowest concentration that inhibits growth of the organism. Lower therefore signals a more susceptible organism. In general, MBC refers to the lowest tested concentration that kills the bacteria rather than only halting them. Read a high MBC as weaker bactericidal potency.
